Source: patent publication US4837226A, “Polycyclic amine derivatives useful as cerebrovascular agents” (Warner-Lambert Company, priority 1988, dated 1989)

Assays:
[1] = target: phencyclidene (PCP) receptors; experiment: [3H]TCP receptor binding (RBS1), rat brain cortex membranes; details: for IC50: [3H]TCP, rat brain cortex membranes, read-out: Inhibition of [^3 H]TCP Receptor Binding, RBS1 IC50; for potency compared with TCP and MK-801 (in words): comparison from Table II; for inhibition of [^3 H]TCP receptor binding (in words): conclusion from Table II
Procedure: Tritiated TCP binding, designated RBS1, was carried out essentially as described in J. Pharmacol. Exp. Ther., 238, 739-748 (1986).

[2] = system: cultured rat cortical neurons; experiment: Inhibition of glutamate stimulated [45Ca] influx (GCI) into cultured rat cortical neurons; format: cell-based; details: for IC50: Cortical neurone, cultured rat cortical neurons, glutamate stimulated; for inhibition of glutamate stimulated influx of calcium (in words): conclusion from Table III
Source text: (§1) The ability of the compounds of the instant invention to inhibit the glutamate and hypoxia stimulated influx of calcium into cultured rat cortical neurons is shown in Table III and Table IV respectively. The methodology for determining the ability of the compounds of the instant invention to inhibit the glutamate stimulated calcium influx (GCI) into cultured rat cortical neurons is to be found in: A. W. Probert and F. W. Marcoux, Soc. Neurosci. Abstr., 13, Part II, 754, (1987). Using a similar culture system, the ability of the compounds of the instant invention to inhibit the hypoxia stimulated influx of calcium (HCI) was determined by incubating cultured cells in an atmosphere of nitrogen (95%) and CO2 (5%) at 37° C. for a period of 4 hours. Calcium influx was determined by subtraction of the stimulated influx in the presence of tetrodotoxin (3 μM) and magnesium (10 mM) from that found in the absence (control) and in the presence of the test substance.

[3] = system: cultured rat cortical neurons; experiment: Inhibition of hypoxia induced [45Ca] influx (HCI) into cultured rat cortical neurons; format: cell-based; details: for IC50: Cortical neurone, cultured rat cortical neurons, 95% N2/5% CO2, 37° C., 4 hours; for inhibition of hypoxia induced calcium influx (in words): conclusion from Table IV
Source text: as §1

## CNC12CCCCC1Sc1ccccc12 (centres unmarked) [Example 30, 6,7,8,9-tetrahydro-N-methyl-9a(5aH)-dibenzothiophenamine]
[1]
  IC50: 0.01 µM
  potency compared with TCP and MK-801 (in words): potency comparable to both TCP and MK-801
  inhibition of [^3 H]TCP receptor binding (in words): potent inhibitors
[2]
  IC50: 0.26 µM
  inhibition of glutamate stimulated influx of calcium (in words): inhibit the glutamate stimulated influx of calcium
[3]
  IC50: 0.2 µM
  inhibition of hypoxia induced calcium influx (in words): potent inhibitors

## CCNC12CCCCC1Oc1ccccc12 (centres unmarked) [Example 27, N-ethyl-6,7,8,9-tetrahydro-9a(5aH)-dibenzofuranamine]
[1]
  IC50: 0.141 µM
  inhibition of [^3 H]TCP receptor binding (in words): potent inhibitors
[2]
  IC50: 1.8 µM
  inhibition of glutamate stimulated influx of calcium (in words): inhibit the glutamate stimulated influx of calcium
[3]
  IC50: 0.124 µM
  inhibition of hypoxia induced calcium influx (in words): potent inhibitors

## CNC1(c2ccccc2Cl)CCCCC1=O (centres unmarked) [ketamine, reference compound]
[2]
  IC50: 5.5 µM
[3]
  IC50: 1.9 µM

## CNC12CC(C)CCC1Cc1ccccc12 (centres unmarked) [Example 12, 1,2,3,4,9,9a-hexahydro-3-methyl-N-methyl-(4aH)-fluoren-4a-amine]
[1]
  IC50: 0.095 µM
  inhibition of [^3 H]TCP receptor binding (in words): potent inhibitors
[2]
  IC50: 1.9 µM
  inhibition of glutamate stimulated influx of calcium (in words): inhibit the glutamate stimulated influx of calcium
[3]
  IC50: 0.095 µM
  inhibition of hypoxia induced calcium influx (in words): potent inhibitors

## C[C@]12N[C@H](Cc3ccccc31)c1ccccc12 [MK-801, reference compound]
[2]
  IC50: 0.051 µM
[3]
  IC50: 0.034 µM

## COCCCNC12CCCCC1Cc1ccccc12 (centres unmarked) [Example 8, 1,2,3,4,9,9a-hexahydro-N-(3-methoxypropyl)-4aH-fluoren-4a-amine]
[1]
  IC50: 0.102 µM
  inhibition of [^3 H]TCP receptor binding (in words): potent inhibitors
[2]
  IC50: 1.9 µM
  inhibition of glutamate stimulated influx of calcium (in words): inhibit the glutamate stimulated influx of calcium
[3]
  IC50: 0.043 µM
  inhibition of hypoxia induced calcium influx (in words): potent inhibitors

## CNC12CCCCC1Cc1ccccc12 (centres unmarked) [Example 2, 1,2,3,4,9,9a-hexahydro-N-methyl-4aH-fluoren-4a-amine]
[1]
  IC50: 0.015 µM
  potency compared with TCP and MK-801 (in words): potency comparable to both TCP and MK-801
  inhibition of [^3 H]TCP receptor binding (in words): potent inhibitors
[2]
  IC50: 0.304 µM
  inhibition of glutamate stimulated influx of calcium (in words): inhibit the glutamate stimulated influx of calcium
[3]
  IC50: 0.005 µM
  inhibition of hypoxia induced calcium influx (in words): potent inhibitors

## NC12CCCCC1Cc1ccccc12 (centres unmarked) [Example 1, 1,2,3,4,9,9a-hexahydro-4aH-fluoren-4a-amine]
[1]
  IC50: 0.027 µM
  potency compared with TCP and MK-801 (in words): potency comparable to both TCP and MK-801
  inhibition of [^3 H]TCP receptor binding (in words): potent inhibitors
[3]
  IC50: 0.167 µM
  inhibition of hypoxia induced calcium influx (in words): potent inhibitors

## c1ccc(C2(N3CCCCC3)CCCCC2)cc1 [PCP, phencyclidene, reference compound]
[1]
  IC50: 0.04 µM
[2]
  IC50: 0.16 µM
[3]
  IC50: 0.045 µM
